Measurements from patent US12611380B2, “Solution and method for reducing the virulence of viruses, bacteria, yeasts, or fungus” (priority 2020, dated 2026).
Entries after “also recorded” stand apart in the source; their conditions may differ. Like-named read-outs stand apart in the source and are kept apart here.

Columns and labels:
[1] = Clinical observation on washing with ILPS; assay type: in vivo; settings: general cosmetic use
[2] = system: methacillin resistant Staphylococcus aureus, vancomycin resistant enterococcus, pseudomonas, aspergillus, Candida albicans, Helicobacter pylori; settings: studies by a third party; cited from earlier work
[3] = system: Candida auris (AR-0381)
Method: (§1) We used EPA protocol MB-35-00 for testing disinfectants against C. auris (US Environmental Protection Agency. 2017, 2020) and C. albicans ATCC 10231, a yeast common in package spoilage of food and cosmetics.
(§2) We tested 5 batches produced with difference sources of isomerized linoleic acid (Test Substances 1-5).
(§3) The EPA test protocol for testing hard surface disinfection of C. auris (AR0381) with antifungal resistance includes an overnight culture of C. auris (AR.0381) shaken at 200 rpm at 30° C. From this culture, 8 mL was harvested by centrifugation, re-suspended in 2-3 mL phosphate-buffered saline (PBS), and mixed with a 3-part soil load including bovine serum albumin (BSA), yeast extract, and mucin. Metal carriers (10 mm) were inoculated (10 μL culture+soil load) and dried in a desiccator under vacuum (˜70 min). The disk surface was coated with the test substance at 0.42 M (50 μL) for up to 10 min. Following incubation, the carriers were transferred to 10 mL neutralization solution (Sabouraud Dextrose Broth [SDB], a common yeast-mold growth media) for subsequent harvesting on membrane filters. The filtered membranes were transferred to Sabouraud Dextrose Emmons Agar (SDEA) plates to culture for 120 hours at 31° C. Controls consisted of PBS (50 μL) applied to inoculated metal disk carriers, subsequently transferred to 10 mL neutralization solution (SDB), diluted serially in PBS, and plated directly to SDEA plates, See FIG. 2.
(§4) We prepared and qualified these per EPA protocol (US Environmental Protection Agency, 2017). • Soil Stocks: We prepared soil stocks with yeast extract powder (Ref RM027) purchased from Himedia, BSA (A2153) purchased from Sigma Life Science, and gastric mucin (cat #HY-B2196/CS-7626) purchased from Mod Chem Express per SOP MB-35-00 (US Environmental Protection Agency, 2017). • Cell Harvesting: We removed cells from the growth culture media using a Micro-Centrifuge obtained from Changzhou Jintan Sanhe Instrument Co., LTD. (Model TGI6-W) at 10,000×g for 10 min in screw-top-cap vials purchased from Heathrow Scientific (Item HS 100600). The optical density of the inoculate was defined at 15-19 OD600 in PBS with the Ultrospec 10 Cell Density Meter from BioChrom (Holliston, MA, USA) prior to dilution in the soil load. Samples were diluted 1:10 in PBS to obtain absorbance readings between 1.5 and 1.9. • Membrane Filtration: Treated yeasts were collected using a combination of the Rocker (Cat #200300-01) and 47 mm PES membranes with a 0.45 micron pore size obtained from Sterlitech (Catalog #PE54547100).

[4] = Solubility of ILCS preparations; assay type: physicochemical; settings: pH 7-10.5
[5] = system: Candida albicans ATCC 10231; experiment: EPA MLB SOP MB-35-00 stainless steel carrier disinfection with ILPS (Example 5); assay type: cell-based
[6] = system: Vero 76 cells
[7] = system: viral illnesses such as pharyngitis and rhinorrhea; experiment: ILCS spray or wash for the nasopharynx cavity; assay type: in vivo; settings: 2-50 mM ILCS spray or wash
[8] = system: COVID-19; experiment: Nebulized LA outpatient treatment of COVID-19 patients and close contacts (case studies); assay type: in vivo, human
Method: After informed consent of the risks and potential benefits, we nebulized 0.56 ml 11 mM LA every 4 hours to treat two COVID-19 patients. The initial treatment of the […] began after two days of symptoms and the […] began treatment after their first day symptoms. Treatment observations of these two cohabiting patients occurred in their home to alter the likely course of clinical deterioration given their co-morbidities.
They were treated with 0.56 ml 11 mM nebulized LA every 4 hours, around the clock for 7 days. Oxygen saturation levels were recorded by the patient using a pulse oximeter. The initial and final evaluation was conducted as a home visit. All other evaluations were conducted by telephone. The treatment timeline starts the day after the initial home visit. • Day 1: they reported a total loss of taste and smell and mild chest pain. They also reported absence of dyspnea early that day and improved cough. Their oxygen saturation measured 98% (up from 94%). • Day 2: they reported intermittent taste and smell through day 4. Their chest pain resolved. They also reported infrequent loose bowel movements which improved and resolved over the following 3 days. They described no dyspnea. Their oxygen saturation measured 97%. • Day 3: they reported a return of mild dyspnea. Their oxygen saturation measured 95%. • Day 4: they reported dyspnea improvement. Their oxygen saturation measured between 95-98%. • Day 5: they reported that their sense of taste and smell was close to normal. They also reported that their cough had resolved and they had minimal dyspnea. Their oxygen saturation measured 97%. • Day 6: no reported symptoms. Their oxygen saturation measured 97%. • Day 7: no reported symptoms. Their oxygen saturation measured 98%.
After informed consent of the risks and potential benefits, we nebulized 0.56 ml 11 mM LA every 4 hours around the clock for 7 days. […] […] initial oxygen saturation measured 96%.
Oxygen saturation levels were recorded by the patient using a pulse oximeter. The initial and final evaluation was conducted as a home visit. All other evaluations were conducted by telephone. The treatment timeline starts the day after the initial home visit. • Day 1: they reported loss of taste and smell and fatigue. Their wheezing had improved. They reported no dyspnea. Oxygen saturation measured 95%. • Day 2: they reported mild wheezing and dyspnea. Their oxygen saturation measured 94%. An additional treatment of an Albuterol nebulizer and Methylprednisolone Dosepak was started for their asthma exacerbation. When starting nebulized Albuterol, this patient inadvertently discontinued the nebulized LA because they misunderstood instructions. This cessation of nebulized LA was not reported to the treating physician until Day 4. • Day 3: they reported improved loss of taste and smell and cough. Dyspnea worsened. Oxygen saturation measured 98% • Day 4: they reported that the loss of taste and smell improved. They also reported mild wheezing and cough. Oxygen saturation measured 95%. The patient reported the Albuterol nebulizer aggravated dyspnea symptoms. Because of their complaint, the Albuterol nebulizer was discontinued. Nebulized LA treatment was started again. • Day 5: they reported no loss of taste and smell. Minimal cough, wheeze, and dyspnea. Oxygen saturation measured 96% • Day 6: no reported symptoms. Oxygen saturation measured 98%. • Day 7: no reported symptoms. Oxygen saturation measured 98%.
Four lab confirmed COVID-19 cases, 2 probable cases, and 2 close contacts of confirmed COVID-19 cases were nebulized 0.56 ml 11 mM LA (Table 2). Treatment with LA was started after patients were assessed by their primary physician. Patients presented at different points in their COVID-19 infection. Onset of treatment ranged from asymptomatic to 9 days into the symptom course. Two close contacts with cases were treated. They were asymptomatic. Two close contacts with COVID-19 cases were also nebulized using 0.56 ml 11 mM LA every 4 hours. […]

[9] = system: Candida albicans (ATCC 10231); experiment: EPA protocol MB-35-00 hard surface carrier disinfection test; settings: 0.42 M, 1 min
Method: as §1, §2, §3, §4

[10] = system: SARS-COV-2; experiment: Virucidal assay, 2 minutes contact, end-point titer (CCID50) on Vero 76 cells
[11] = Concentration 11.3% of 12% ICLS, 2 minutes, 22±2° C., Table 4
[12] = Concentration 22.5% of 12% ICLS, 2 minutes, 22±2° C., Table 4
[13] = Concentration 45% of 12% ICLS, 2 minutes, 22±2° C., Table 4
[14] = Concentration 90% of 12% ICLS, 2 minutes, 22±2° C., Table 4
[15] = second experiment, Concentration 0.25% of 12% ICLS, 2 minutes, Table 5
[16] = second experiment, Concentration 0.5% of 12% ICLS, 2 minutes, Table 5
[17] = second experiment, Concentration 1% of 12% ICLS, 2 minutes, Table 5
[18] = second experiment, Concentration 11.3% of 12% ICLS, 2 minutes, 22±2° C., Table 5
[19] = second experiment, LA 1% (4.4 mM), 2 minutes, Tables 8 and 9

## potassium salt of isomerized linoleic acid [ILCS]
[1]
  acne: clinical remission of acne
[2]
  growth of pathogens: suppresses the growth
[3]; 0.42 M, 1 min
  log kill rate: greater than 5 log
[3]; 10-min test, the longest time allowed per the SOP
  log kill rates: greater than 5 log
[4]
  solubility: remain soluble
[5]; 1 minute exposure to ILPS, only exposure time of 8 to 1 minutes with growth
  growth on exposed carrier: 158 CFU
[5]; 2 minutes exposure/immersion, carriers with 6-8 log yeast
  kill: 100%
[5]; undiluted ILPS, 10 minutes contact time, PBS controls 5.9 to 7.2 log10 CFU
  colonies recovered from treated surfaces: no Candida albicans colonies
[6]; 11.3% sample, 1/10 dilution
  toxicity to cells in titer plates: Full toxicity
[6]; 22.5%-90% samples, 1/10 and 1/100 dilutions
  toxicity to cells in titer plates: Full toxicity
[7]
  symptoms associated with viral illnesses: reduced symptoms
[8]; Cases 1
  COVID-19 Complications: none
[8]; Cases 1, 0 days of symptoms before treatment
  Total Duration of Symptoms: 0 days
[8]; Cases 2
  COVID-19 Complications: none
[8]; Cases 2, 2 days of symptoms before treatment
  Total Duration of Symptoms: 7 days
[8]; Cases 3, 4 days of symptoms before treatment
  Total Duration of Symptoms: 16 days
[8]; Cases 4, 9 days of symptoms before treatment
  Total Duration of Symptoms: 23 days
[8]; Close Contacts 1
  COVID-19 Complications: none
[8]; Close Contacts 1, asymptomatic at treatment
  Total Duration of Symptoms: 0 days
[8]; Close Contacts 2
  COVID-19 Complications: none
[8]; Close Contacts 2, asymptomatic at treatment
  Total Duration of Symptoms: 0 days
[8]; Probable Cases 1
  COVID-19 Complications: Steroid for asthma
[8]; Probable Cases 1, 1 day of symptoms before treatment
  Total Duration of Symptoms: 6 days
[8]; Probable Cases 2
  COVID-19 Complications: none
[8]; Probable Cases 2, 3 days of symptoms before treatment
  Total Duration of Symptoms: 10 days
[8]; eight patients of Example 7, nebulized 0.56 ml 11 mM LA, listed as LA
  side effects to nebulized LA: no side effects; also recorded: None of the eight patients reported any side effects
[8]; husband, treatment Day 1 (94% before treatment)
  oxygen saturation: 98%
[8]; husband, treatment Day 2
  oxygen saturation: 97%
[8]; husband, treatment Day 3
  oxygen saturation: 95%
[8]; husband, treatment Day 4
  oxygen saturation: 95-98%
[8]; husband, treatment Day 5
  oxygen saturation: 97%
[8]; husband, treatment Day 6
  oxygen saturation: 97%
[8]; husband, treatment Day 7
  oxygen saturation: 98%
[8]; two asymptomatic close contacts of COVID-19 cases
  prevention of symptoms in close contacts: completely effective
[8]; two patients of Example 6, 0.56 ml 11 mM every 4 hours for 7 days
  side effects to nebulized LA: no side effects
[8]; wife, Day 2, Albuterol and Methylprednisolone started, LA inadvertently discontinued
  oxygen saturation: 94%
[8]; wife, Day 3, nebulized LA discontinued, on Albuterol
  oxygen saturation: 98%
[8]; wife, Day 4, nebulized LA started again
  oxygen saturation: 95%
[8]; wife, treatment Day 1 (96% before treatment)
  oxygen saturation: 95%
[8]; wife, treatment Day 5
  oxygen saturation: 96%
[8]; wife, treatment Day 6
  oxygen saturation: 98%
[8]; wife, treatment Day 7
  oxygen saturation: 98%
[9]
  log kill rate: greater than 5 log
[10]
  reduction of virus vs virus controls: > 99%
[10]; 1% (4.4 mM), 2 minutes, second experiment, titer reduced to 1.7 log CCID50 per 0.1 mL
  reduction of virus vs virus controls: 99%
[10]; 22.5%-90%, 2 minutes, first experiment, below limit of detection 2.7 log CCID50 per 0.1 mL
  reduction of virus vs virus controls: > 80%
[10]; [11]
  LRV (log reduction value): >1.8
  Virus Titer: <1.7 Log10 CCID50 of virus per 0.1 mL
[10]; [12]
  LRV (log reduction value): >0.8
  Virus Titer: <2.7 Log10 CCID50 of virus per 0.1 mL
[10]; [13]
  LRV (log reduction value): >0.8
  Virus Titer: <2.7 Log10 CCID50 of virus per 0.1 mL
[10]; [14]
  LRV (log reduction value): >0.8
  Virus Titer: <2.7 Log10 CCID50 of virus per 0.1 mL
[10]; LA 4.4-50.2 mM, 2 minutes
  kill-rate of COVID-19 (SARS-Cov-2) in vitro: 99%
[10]; [15]
  LRV (log reduction value): 0.4
  Virus Titer: 3.3 Log10 CCID50 of virus per 0.1 mL
[10]; [16]
  LRV (log reduction value): 0.2
  Virus Titer: 3.5 Log10 CCID50 of virus per 0.1 mL
[10]; [17]
  LRV (log reduction value): 2.0
  Virus Titer: 1.7 Log10 CCID50 of virus per 0.1 mL
[10]; [18]
  LRV (log reduction value): >2.0
  Virus Titer: <1.7 Log10 CCID50 of virus per 0.1 mL
[10]; [19]
  LRV (log reduction value): >2.0
  Virus Titer: <1.7 Log10 CCID50of virus per 0.1 mL
